The subject of data set [1] is pulmonary adenocarcinoma cell line A549. The data set can be described thus: MTT antiproliferative assay, A549. The data set is classed as cell-based. Particulars: Homo sapiens, 72 h drug exposure, triplicate, read-out: Antiproliferative activity (IC50 ± SD) A549. The source says:
(§1) Pulmonary adenocarcinoma cell lines (A549) and gastric adenocarcinoma cell lines (SGC-7901) were provided as gifts (purchased from the Cell Resource Center of Shanghai Institutes for Biological Sciences) from the China-Japan Research Institute of Medical and Pharmaceutical Sciences, Shenyang Pharmaceutical University. Fibrosarcoma cell lines (HT-1080) were purchased from the Cell Resource Center of Shanghai Institutes for Biological Sciences. All cells were maintained in DMEM containing 1% antibiotics (100 units of penicillin and […] per mL in 0.9% normal saline) and 10% foetal bovine serum in a humidified atmosphere containing 5% CO2 at 37°C.
(§2) Antiproliferative activities of CA-4 and the target compounds were measured using a colourimetric assay using 3-(4,5-dimethylthiazol-2yl-)-2,5-diphenyltetrazolium bromide (MTT). Approximately 3 × 10^4 cells were seeded in a 96-well plate. After 24 h of incubation at 37°C, cells were exposed to compounds of differing concentrations (0.0008 μg/mL, 0.004 μg/mL, 0.02 μg/mL, 0.10 μg/mL, 0.50 μg/mL, 2.5 μg/mL, 12.5 μg/mL, 62.5 μg/mL) for 72 h. After treatment, cells were washed with 1X PBS followed by addition of 100 μL of 0.05% MTT reagent to each well, followed by incubation for 4 h at 37°C. After incubation, the supernatant from each well was carefully removed and the formazan crystals were dissolved in 100 μL of DMSO. The colour density was measured spectrophotometrically at 490 nm using a microplate reader (SpectraMax Plus384, Molecular Devices Corp., USA). The percentage of cell growth inhibition was calculated as follow: inhibition ratio % = (Acontrol—Atreated) / Acontrol × 100%. The 50% inhibitory concentration (IC50) was defined as the concentration that reduced the absorbance of the untreated wells by 50% of the vehicle in the MTT assay.

Data set [2] concerns gastric adenocarcinoma cell line SGC-7901. The data set can be described thus: MTT antiproliferative assay, SGC-7901. Particulars: Homo sapiens, 72 h drug exposure, triplicate, read-out: Antiproliferative activity (IC50 ± SD) SGC-7901. The format is cell-based.
From the text: as §1, §2

The subject of data set [3] is fibrosarcoma cell line HT-1080. Put plainly: MTT antiproliferative assay, HT-1080. The format is cell-based. The note with it: Homo sapiens, 72 h drug exposure, triplicate, read-out: Antiproliferative activity (IC50 ± SD) HT-1080.
From the text: as §1, §2
Background: Tetrazolium dyes change colour on reduction, which living cells bring about.

Bounds are passed on as bounds.

What is called IC50 is the point on the concentration scale where inhibition reaches its midpoint. In general, melting point refers to the temperature, or range, at which the solid turns liquid. In the case of `COc1cc(-n2nc(C)cc2-c2ccccc2)cc(OC)c1OC` [Compound 7a, 3-Methyl-5-phenyl-1-(3,4,5-trimethoxyphenyl)-1H-pyrazole], the melting point fell in the range of 77 to 78 °C. Besides, in data set [1], the concentration for half-maximal inhibition (IC50) is above 100 µM. Also, in data set [2], the 50% inhibitory concentration (IC50) was above 100 µM. Also, in data set [3], the IC50 was above 100 µM.
Compound `COc1ccc(-c2cc(C)nn2-c2cc(OC)c(OC)c(OC)c2)cc1` [Compound 7b, 3-Methyl-5-(4-methoxyphenyl)-1-(3,4,5-trimethoxy-phenyl)-1H-pyrazole] registered a melting point of 118 to 119 °C. Also, in data set [1], the half-inhibitory concentration (IC50) came out at 15.2 ± 2.2 µM. Moreover, the half-maximal inhibitory concentration (IC50) in data set [2] came to 0.73 ± 0.09 µM. Further, the half-inhibitory concentration (IC50) in data set [3] worked out at 1.01 ± 0.12 µM.
For `COc1cc(-n2nc(C)cc2-c2ccc(C)cc2)cc(OC)c1OC` [Compound 7c, 3-Methyl-5-(4-methylphenyl)-1-(3,4,5-trimethoxy-phenyl)-1H-pyrazole], the figures for the IC50 in data set [1], in data set [2] and in data set [3] were 2.35 ± 0.33 µM, 0.53 ± 0.2 µM and 1.23 ± 0.15 µM, respectively.
`COc1cc(-n2nc(C)cc2-c2ccc(F)cc2)cc(OC)c1OC` [Compound 7d, 3-Methyl-5-(4-fluorophenyl)-1-(3,4,5-trimethoxyphenyl)-1H-pyrazole]: the melting point was in the range of 104 to 105 °C. In addition, the IC50 in data set [1] was above 100 µM. The 50% inhibitory concentration (IC50) in data set [2] turned out to be 20.7 ± 1.2 µM. Besides, the IC50 in data set [3] is above 100 µM.
In turn, `COc1ccc(-c2cc(C)nn2-c2cc(OC)c(OC)c(OC)c2)cc1F` [Compound 7e, 3-Methyl-5-(3-fluoro-4-methoxyphenyl)-1-(3,4,5-trimethoxyphenyl)-1H-pyrazole] returned a melting point of 86 to 87 °C. The IC50 in data set [1] stood at 2.84 ± 0.52 µM. Besides, in data set [2], the IC50 was determined as 3.05 ± 0.33 µM. In data set [3], the IC50 was determined as 5.52 ± 0.26 µM.
The matching figures for `C=CCOc1ccc(-c2cc(C)nn2-c2cc(OC)c(OC)c(OC)c2)cc1OC` [Compound 7f, 3-Methyl-5-(4-allyloxy-3-methoxyphenyl)-1-(3,4,5-trimethoxyphenyl)-1H-pyrazole]: 78 to 79 °C, above 100 µM, 23.6 ± 2.3 µM and above 100 µM.
Consider `C=CCOc1cc(-c2cc(C)nn2-c2cc(OC)c(OC)c(OC)c2)ccc1OC` [Compound 7g, 3-Methyl-5-(3-allyloxy-4-methoxyphenyl)-1-(3,4,5-trimethoxyphenyl)-1H-pyrazole], for which the melting point lay in the range of 79 to 80 °C. Also, the IC50 in data set [1] was above 100 µM. For the same compound, the IC50 in data set [2] was found to be 6.45 ± 0.22 µM. For the same compound, the IC50 in data set [3] is above 100 µM.
In turn, `COc1ccc(-c2cc(C)nn2-c2cc(OC)c(OC)c(OC)c2)cc1[N+](=O)[O-]` [Compound 7h, 3-Methyl-5-(4-methoxy-3-nitrophenyl)-1-(3,4,5-trimethoxyphenyl)-1H-pyrazole] registered a melting point of 145 to 146 °C. Moreover, the IC50 in data set [1] is above 100 µM. For the same compound, in data set [2], the 50% inhibitory concentration (IC50) was 5.22 ± 0.19 µM. Moreover, the IC50 in data set [3] was above 100 µM.
Compound `COc1cc(-c2cc(C)nn2-c2cc(OC)c(OC)c(OC)c2)ccc1O` [Compound 7j, 3-Methyl-5-(4-hydroxy-3-methoxyphenyl)-1-(3,4,5-trimethoxyphenyl)-1H-pyrazole] gave a melting point of 197 to 198 °C. In data set [1], the concentration for half-maximal inhibition (IC50) is above 100 µM. The IC50 in data set [2] stood at 25.9 ± 2.3 µM. Besides, the concentration for half-maximal inhibition (IC50) in data set [3] is above 100 µM.
Take `COc1ccc(-c2c(C=O)c(C)nn2-c2cc(OC)c(OC)c(OC)c2)cc1O` [Compound 7l, 4-Formyl-3-methyl-5-(3-hydroxy-4-methoxyphenyl)-1-(3,4,5-trimethoxyphenyl)-1H-pyrazole]: the melting point is 97 to 98 °C. Besides, the IC50 in data set [1] stood at 45.7 ± 3.3 µM. Moreover, the IC50 in data set [2] came out at 16.4 ± 1.5 µM. Moreover, the concentration for half-maximal inhibition (IC50) in data set [3] is 23.8 ± 1.8 µM.
The matching figures for `COc1ccc(-c2c(CO)c(C)nn2-c2cc(OC)c(OC)c(OC)c2)cc1O` [Compound 7m, 4-Hydroxymethyl-3-methyl-5-(3-hydroxy-4-methoxy-phenyl)-1-(3,4,5-trimethoxyphenyl)-1H-pyrazole]: 166 to 167 °C, 9.04 ± 0.25 µM, 8.42 ± 0.32 µM and 7.11 ± 0.23 µM.
The matching figures for `COc1ccc(-c2c(Br)c(C)nn2-c2cc(OC)c(OC)c(OC)c2)cc1[N+](=O)[O-]` [Compound 7n, 4-Bromo-3-methyl-5-(4-methoxy-3-nitrophenyl)-1-(3,4,5-trimethoxyphenyl)-1H-pyrazole]: 182 to 183 °C, above 100 µM, above 100 µM and above 100 µM.
As for `COc1ccc(-c2c(Br)c(C)nn2-c2cc(OC)c(OC)c(OC)c2)cc1N` [Compound 7o, 4-Bromo-3-methyl-5-(3-amino-4-methoxyphenyl)-1-(3,4,5-trimethoxyphenyl)-1H-pyrazole], the melting point lay in the range of 128 to 129 °C. In addition, in data set [1], the concentration for half-maximal inhibition (IC50) is 79.1 ± 2 µM. In addition, the IC50 in data set [2] was found to be 14.3 ± 3.1 µM. The IC50 in data set [3] worked out at 15.9 ± 3.2 µM.
For `CCc1cc(-c2ccc(OC)c([N+](=O)[O-])c2)n(-c2cc(OC)c(OC)c(OC)c2)n1` [Compound 7p, 3-Ethyl-5-(4-methoxy-3-nitrophenyl)-1-(3,4,5-trimethoxyphenyl)-1H-pyrazole] the same measures were 151 to 152 °C, above 100 µM, above 100 µM and above 100 µM.
`CCCc1cc(-c2ccc(OC)c([N+](=O)[O-])c2)n(-c2cc(OC)c(OC)c(OC)c2)n1` [Compound 7q, 3-Propyl-5-(4-methoxy-3-nitrophenyl)-1-(3,4,5-trimethoxyphenyl)-1H-pyrazole] yielded a melting point of 149 to 150 °C. Also, the IC50 in data set [1] is above 100 µM. Besides, the IC50 in data set [2] was above 100 µM. In addition, in data set [3], the half-inhibitory concentration (IC50) was above 100 µM.
The compound `CCc1cc(-c2ccc(OC)c(N)c2)n(-c2cc(OC)c(OC)c(OC)c2)n1` [Compound 7r, 3-Ethyl-5-(3-amino-4-methoxyphenyl)-1-(3,4,5-trimethoxyphenyl)-1H-pyrazole] came in with a melting point of 114 to 115 °C. Besides, the 50% inhibitory concentration (IC50) in data set [1] came to 3.55 ± 0.09 µM. Moreover, the IC50 in data set [2] was determined as 4.62 ± 0.09 µM. For the same compound, the half-inhibitory concentration (IC50) in data set [3] worked out at 8.16 ± 0.12 µM.
With `CCCc1cc(-c2ccc(OC)c(N)c2)n(-c2cc(OC)c(OC)c(OC)c2)n1` [Compound 7s, 3-Propyl-5-(3-amino-4-methoxyphenyl)-1-(3,4,5-trimethoxyphenyl)-1H-pyrazole], the melting point is 125 to 126 °C. Moreover, the half-inhibitory concentration (IC50) in data set [1] is 56.6 ± 1 µM. The half-maximal inhibitory concentration (IC50) in data set [2] was 35.7 ± 0.08 µM. Besides, in data set [3], the IC50 worked out at 23.2 ± 0.11 µM.
For `COc1cc(-c2cc(C)nn2-c2ccccc2)cc(OC)c1OC` [Compound 8a, 3-Methyl-1-phenyl-5-(3,4,5-trimethoxyphenyl)-1H-pyrazole] the same measures were 88 to 89 °C, above 100 µM, above 100 µM and above 100 µM.
As to `COc1ccc(-n2nc(C)cc2-c2cc(OC)c(OC)c(OC)c2)cc1` [Compound 8b, 3-Methyl-1-(4-methoxyphenyl)-5-(3,4,5-trimethoxy-phenyl)-1H-pyrazole], the melting point lay within 67 to 68 °C. Besides, the IC50 in data set [1] was determined as 9.39 ± 0.21 µM. For the same compound, the IC50 in data set [2] is 19 ± 2 µM. The IC50 in data set [3] amounted to 28.2 ± 1.9 µM.
The compound `COc1cc(-c2cc(C)nn2-c2ccc(C)cc2)cc(OC)c1OC` [Compound 8c, 3-Methyl-1-(4-methylphenyl)-5-(3,4,5-trimethoxy-phenyl)-1H-pyrazole] came in with a melting point of 70 to 71 °C. Further, in data set [1], the 50% inhibitory concentration (IC50) came to 16.2 ± 1 µM. In data set [2], the IC50 amounted to 11.8 ± 1.2 µM. Besides, in data set [3], the concentration for half-maximal inhibition (IC50) worked out at 15.6 ± 1.5 µM.
The compound `COc1cc(-c2cc(C)nn2-c2cc([N+](=O)[O-])ccc2C)cc(OC)c1OC` [Compound 8d, 3-Methyl-1-(2-methyl-5-nitrophenyl)-5-(3,4,5-trimethoxyphenyl)-1H-pyrazole] showed a melting point of 102 to 103 °C. Also, the IC50 in data set [1] came out at 48.6 ± 1.1 µM. Also, the IC50 in data set [2] worked out at 31.1 ± 2.5 µM. Also, the 50% inhibitory concentration (IC50) in data set [3] was above 100 µM.
For `COc1cc(-c2cc(C)nn2-c2cc(N)ccc2C)cc(OC)c1OC` [Compound 8e, 3-Methyl-1-(5-amino-2-methylphenyl)-5-(3,4,5-trimethoxyphenyl)-1H-pyrazole] the same measures were 69 to 70 °C, 28.2 ± 1.7 µM, 2.43 ± 0.09 µM and 11.9 ± 1.9 µM.
As for `COc1ccc(-n2nc(C)cc2-c2cc(OC)c(OC)c(OC)c2)cc1[N+](=O)[O-]` [Compound 8f, 3-Methyl-1-(4-methoxy-3-nitrophenyl)-5-(3,4,5-trimethoxyphenyl)-1H-pyrazole], the melting point fell in the range of 118 to 119 °C. Besides, the concentration for half-maximal inhibition (IC50) in data set [1] is above 100 µM. In addition, the IC50 in data set [2] is above 100 µM. The IC50 in data set [3] was above 100 µM.

The values above are taken from publication PMC4462585, “Synthesis and Biological Evaluation of 3-Alkyl-1,5-Diaryl-1H-Pyrazoles as Rigid Analogues of Combretastatin A-4 with Potent Antiproliferative Activity” (PLoS ONE, 2015).
